# Reference: ChEMBL document CHEMBL1201862, “PubChem BioAssay data set” (2004)
# Activity calls are given as the source filed them.
# Columns and labels:
# HEK293 [1] = assay: NOD1 signaling inhibitors, primary screen, cell-based, luminescence, uHTS (AID 1578); type: functional; conditions: Homo sapiens
# HEK293 [2] = assay: cells; type: functional, cell-based; conditions: Homo sapiens
# HEK293 [3] = assay: cells; type: functional, cell-based; conditions: Homo sapiens; remark: listed apart in the source
# HEK293 [4] = assay: NOD2 signaling inhibitors in MDP-stimulated cells, cell-based, uHTS, luminescence (AID 2001); type: functional; conditions: Homo sapiens
# [5] = inhibitors of intracellular T. cruzi replication, confirmation, NIH3T3 host cells, beta-gal luminescence (AID 2044); type: functional, cell-based;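 note: intracellular parasites grown in NIH/3T3 mouse fibroblasts as host cells; luminescent beta-galactosidase reporter signal from transgenic T. cruzi replicating inside host cells; inhibitors lower the luminescence signal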
# [6] = cytotoxicity toward NIH3T3 fibroblasts, dose response, counter-screen, cell-based, ATP luminescence, mouse fibroblasts (AID 2010); type: functional;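 note: cells exposed to compound for about 90 hours before reading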
# [7] = target: T1, Methionyl-tRNA synthetase, putative (Trypanosoma brucei brucei, UniProt Q38C91); type: functional, Trypanosoma brucei brucei strain 927/4 GUTat10.1
# T1 sequence (Q38C91 whole entry): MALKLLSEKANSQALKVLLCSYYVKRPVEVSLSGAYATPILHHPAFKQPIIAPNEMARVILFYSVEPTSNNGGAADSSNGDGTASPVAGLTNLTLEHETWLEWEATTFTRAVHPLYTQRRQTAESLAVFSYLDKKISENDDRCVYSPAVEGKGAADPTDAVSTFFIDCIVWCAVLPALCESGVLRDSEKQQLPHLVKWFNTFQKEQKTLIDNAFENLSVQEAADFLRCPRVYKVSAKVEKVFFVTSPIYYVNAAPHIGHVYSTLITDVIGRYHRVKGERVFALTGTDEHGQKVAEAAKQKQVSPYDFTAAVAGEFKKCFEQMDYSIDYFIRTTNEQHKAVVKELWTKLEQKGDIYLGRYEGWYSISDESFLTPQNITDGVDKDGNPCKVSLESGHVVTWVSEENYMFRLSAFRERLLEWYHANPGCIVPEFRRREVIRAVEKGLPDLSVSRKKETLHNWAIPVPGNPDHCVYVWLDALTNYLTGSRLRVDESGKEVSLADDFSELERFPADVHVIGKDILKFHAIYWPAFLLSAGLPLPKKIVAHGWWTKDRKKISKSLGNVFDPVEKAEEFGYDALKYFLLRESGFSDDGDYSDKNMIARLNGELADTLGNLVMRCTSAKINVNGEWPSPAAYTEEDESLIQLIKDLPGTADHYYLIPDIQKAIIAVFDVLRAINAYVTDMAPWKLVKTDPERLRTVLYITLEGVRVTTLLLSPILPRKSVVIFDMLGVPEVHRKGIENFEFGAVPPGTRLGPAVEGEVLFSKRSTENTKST
# [8] = Counterscreen for inhibitors of Trypanosoma brucei methionyl tRNA synthetase (MetRS): Luminescence-based cell-based high throughput dose response assay to identify compounds that are cytotoxic to Jurkat human T lymphocyte cells.; type: functional
# [9] = target: T1, Methionyl-tRNA synthetase, putative; type: functional, Trypanosoma brucei brucei strain 927/4 GUTat10.1; remark: listed apart in the source
# [10] = target: T2, Small ubiquitin-related modifier 1 (Homo sapiens, UniProt P63165); assay: inhibitors of SUMO1 peptide binding, dose response, biochemical, fluorescence polarization, uHTS hits (AID 624382); type: functional; conditions: read-out: IC50_Mean
# T2 sequence (P63165 whole entry, the tested form may be a part): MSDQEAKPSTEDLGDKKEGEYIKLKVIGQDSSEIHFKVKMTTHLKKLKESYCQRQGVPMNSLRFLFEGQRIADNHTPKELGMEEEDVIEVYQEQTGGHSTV
# Fatty acid synthase [11] = target: T3, Fatty acid synthase (Homo sapiens, UniProt P49327); assay: FAS thioesterase domain inhibitors, dose response, biochemical, endpoint fluorescence intensity, uHTS hits (AID 624327); type: functional;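 note: fluorescence from hydrolysis of an O-methyl fluorescein acyl ester substrate by the enzyme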
# T3 sequence (P49327 whole entry, the tested form may be a part): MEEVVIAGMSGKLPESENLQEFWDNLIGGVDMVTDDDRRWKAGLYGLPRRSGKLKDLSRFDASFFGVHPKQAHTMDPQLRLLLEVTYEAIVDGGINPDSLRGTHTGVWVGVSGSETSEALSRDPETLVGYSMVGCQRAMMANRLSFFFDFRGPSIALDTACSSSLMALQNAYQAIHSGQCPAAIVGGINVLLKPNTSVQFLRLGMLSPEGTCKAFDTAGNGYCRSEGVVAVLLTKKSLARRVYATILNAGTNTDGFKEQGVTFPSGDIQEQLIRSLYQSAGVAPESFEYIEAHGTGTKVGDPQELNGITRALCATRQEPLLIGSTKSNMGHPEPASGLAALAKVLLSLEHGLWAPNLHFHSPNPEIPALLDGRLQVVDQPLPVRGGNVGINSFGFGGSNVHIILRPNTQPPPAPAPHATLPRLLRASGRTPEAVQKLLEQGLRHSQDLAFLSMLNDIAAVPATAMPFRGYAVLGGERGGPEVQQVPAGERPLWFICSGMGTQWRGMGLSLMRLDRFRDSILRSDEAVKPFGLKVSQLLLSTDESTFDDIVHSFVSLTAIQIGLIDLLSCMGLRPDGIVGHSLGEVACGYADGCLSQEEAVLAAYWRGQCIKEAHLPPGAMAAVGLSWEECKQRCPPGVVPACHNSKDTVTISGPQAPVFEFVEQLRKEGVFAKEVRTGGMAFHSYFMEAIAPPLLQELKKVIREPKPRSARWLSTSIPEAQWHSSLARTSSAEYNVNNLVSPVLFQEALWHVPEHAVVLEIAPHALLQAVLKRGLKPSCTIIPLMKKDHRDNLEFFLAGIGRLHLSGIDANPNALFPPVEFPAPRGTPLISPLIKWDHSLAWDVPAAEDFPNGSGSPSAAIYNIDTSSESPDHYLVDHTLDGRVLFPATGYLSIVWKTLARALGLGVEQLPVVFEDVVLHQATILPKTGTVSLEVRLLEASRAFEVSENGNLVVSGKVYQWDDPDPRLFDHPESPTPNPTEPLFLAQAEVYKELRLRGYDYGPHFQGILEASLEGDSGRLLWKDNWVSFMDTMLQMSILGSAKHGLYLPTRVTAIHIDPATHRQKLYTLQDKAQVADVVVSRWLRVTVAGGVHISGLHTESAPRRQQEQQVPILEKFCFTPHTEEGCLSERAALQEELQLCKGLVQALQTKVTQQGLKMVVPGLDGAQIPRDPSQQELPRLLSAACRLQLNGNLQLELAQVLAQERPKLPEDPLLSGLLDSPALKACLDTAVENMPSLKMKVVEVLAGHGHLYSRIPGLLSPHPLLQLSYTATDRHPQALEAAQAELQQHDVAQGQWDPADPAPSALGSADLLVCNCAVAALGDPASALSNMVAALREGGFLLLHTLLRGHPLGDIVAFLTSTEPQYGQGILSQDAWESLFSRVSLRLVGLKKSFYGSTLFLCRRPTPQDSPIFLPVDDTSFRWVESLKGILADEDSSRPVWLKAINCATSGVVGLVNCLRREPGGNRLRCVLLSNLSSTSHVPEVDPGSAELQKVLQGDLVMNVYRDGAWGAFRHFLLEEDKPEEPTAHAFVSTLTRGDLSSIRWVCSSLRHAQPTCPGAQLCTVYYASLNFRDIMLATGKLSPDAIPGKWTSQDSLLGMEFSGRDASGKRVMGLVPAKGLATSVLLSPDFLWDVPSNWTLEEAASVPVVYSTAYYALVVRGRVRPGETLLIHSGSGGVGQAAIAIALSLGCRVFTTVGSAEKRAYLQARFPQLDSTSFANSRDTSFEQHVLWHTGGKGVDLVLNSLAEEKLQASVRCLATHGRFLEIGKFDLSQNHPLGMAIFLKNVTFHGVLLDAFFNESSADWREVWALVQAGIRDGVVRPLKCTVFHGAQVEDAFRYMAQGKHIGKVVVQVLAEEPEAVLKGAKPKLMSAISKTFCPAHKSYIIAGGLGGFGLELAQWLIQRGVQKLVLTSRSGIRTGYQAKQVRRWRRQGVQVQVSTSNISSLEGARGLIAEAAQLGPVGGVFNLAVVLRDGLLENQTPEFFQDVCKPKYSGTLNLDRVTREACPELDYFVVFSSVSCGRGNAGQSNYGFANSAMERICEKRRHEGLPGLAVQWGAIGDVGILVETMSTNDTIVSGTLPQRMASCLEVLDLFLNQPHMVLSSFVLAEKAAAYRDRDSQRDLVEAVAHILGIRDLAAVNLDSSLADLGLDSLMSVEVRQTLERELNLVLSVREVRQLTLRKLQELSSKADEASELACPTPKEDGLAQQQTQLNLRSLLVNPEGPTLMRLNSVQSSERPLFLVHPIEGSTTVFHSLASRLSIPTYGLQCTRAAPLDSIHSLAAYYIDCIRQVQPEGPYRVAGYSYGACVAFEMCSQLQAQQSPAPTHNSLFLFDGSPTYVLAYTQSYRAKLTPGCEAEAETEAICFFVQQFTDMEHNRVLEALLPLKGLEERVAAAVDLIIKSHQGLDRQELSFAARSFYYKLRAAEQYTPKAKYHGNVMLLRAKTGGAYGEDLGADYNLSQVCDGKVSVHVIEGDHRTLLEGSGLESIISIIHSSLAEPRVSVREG
# [12] = target: T2, Small ubiquitin-related modifier 1; assay: inhibitors of SUMO1 partner interactions, dose response, biochemical, FRET (AID 624383); type: functional; conditions: read-out: IC50_Mean
# [13] = ARNT/TACC3 interaction disruptors, potency, confirmation, biochemical, AlphaScreen, cherry-picked samples (AID 651703); type: functional, Homo sapiens;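 note: His-tagged ARNT PAS-B domain paired with GST-TACC3 E629A dimer coactivator fragment; potency of inhibitors that break up the complex and lower AlphaScreen signal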
# Fatty acid synthase [14] = target: T3, Fatty acid synthase; assay: FAS thioesterase domain inhibitors, dose response, biochemical, kinetic fluorescence intensity (AID 624326); type: functional;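 note: rate of fluorescence rise from hydrolysis of a fluorogenic O-methyl fluorescein ester substrate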
# Caspase-6 = target: T4, Caspase-6 (Homo sapiens, UniProt P55212); assay: human caspase-6 inhibitors, dose response, biochemical, VEID-R110 fluorescence, cherry-pick (AID 720632)
# T4 sequence (P55212 whole entry): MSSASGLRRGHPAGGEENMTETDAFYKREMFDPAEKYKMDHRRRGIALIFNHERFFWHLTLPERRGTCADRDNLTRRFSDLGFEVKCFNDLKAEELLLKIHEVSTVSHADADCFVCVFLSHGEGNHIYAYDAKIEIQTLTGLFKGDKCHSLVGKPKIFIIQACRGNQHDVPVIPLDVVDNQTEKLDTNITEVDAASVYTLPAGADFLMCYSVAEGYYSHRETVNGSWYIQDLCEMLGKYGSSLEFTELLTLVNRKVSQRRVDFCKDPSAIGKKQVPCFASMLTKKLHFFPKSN
# [15] = target: T5, Histone-lysine N-methyltransferase NSD2 (Homo sapiens, UniProt O96028); type: biochemical
# T5 sequence (O96028 whole entry): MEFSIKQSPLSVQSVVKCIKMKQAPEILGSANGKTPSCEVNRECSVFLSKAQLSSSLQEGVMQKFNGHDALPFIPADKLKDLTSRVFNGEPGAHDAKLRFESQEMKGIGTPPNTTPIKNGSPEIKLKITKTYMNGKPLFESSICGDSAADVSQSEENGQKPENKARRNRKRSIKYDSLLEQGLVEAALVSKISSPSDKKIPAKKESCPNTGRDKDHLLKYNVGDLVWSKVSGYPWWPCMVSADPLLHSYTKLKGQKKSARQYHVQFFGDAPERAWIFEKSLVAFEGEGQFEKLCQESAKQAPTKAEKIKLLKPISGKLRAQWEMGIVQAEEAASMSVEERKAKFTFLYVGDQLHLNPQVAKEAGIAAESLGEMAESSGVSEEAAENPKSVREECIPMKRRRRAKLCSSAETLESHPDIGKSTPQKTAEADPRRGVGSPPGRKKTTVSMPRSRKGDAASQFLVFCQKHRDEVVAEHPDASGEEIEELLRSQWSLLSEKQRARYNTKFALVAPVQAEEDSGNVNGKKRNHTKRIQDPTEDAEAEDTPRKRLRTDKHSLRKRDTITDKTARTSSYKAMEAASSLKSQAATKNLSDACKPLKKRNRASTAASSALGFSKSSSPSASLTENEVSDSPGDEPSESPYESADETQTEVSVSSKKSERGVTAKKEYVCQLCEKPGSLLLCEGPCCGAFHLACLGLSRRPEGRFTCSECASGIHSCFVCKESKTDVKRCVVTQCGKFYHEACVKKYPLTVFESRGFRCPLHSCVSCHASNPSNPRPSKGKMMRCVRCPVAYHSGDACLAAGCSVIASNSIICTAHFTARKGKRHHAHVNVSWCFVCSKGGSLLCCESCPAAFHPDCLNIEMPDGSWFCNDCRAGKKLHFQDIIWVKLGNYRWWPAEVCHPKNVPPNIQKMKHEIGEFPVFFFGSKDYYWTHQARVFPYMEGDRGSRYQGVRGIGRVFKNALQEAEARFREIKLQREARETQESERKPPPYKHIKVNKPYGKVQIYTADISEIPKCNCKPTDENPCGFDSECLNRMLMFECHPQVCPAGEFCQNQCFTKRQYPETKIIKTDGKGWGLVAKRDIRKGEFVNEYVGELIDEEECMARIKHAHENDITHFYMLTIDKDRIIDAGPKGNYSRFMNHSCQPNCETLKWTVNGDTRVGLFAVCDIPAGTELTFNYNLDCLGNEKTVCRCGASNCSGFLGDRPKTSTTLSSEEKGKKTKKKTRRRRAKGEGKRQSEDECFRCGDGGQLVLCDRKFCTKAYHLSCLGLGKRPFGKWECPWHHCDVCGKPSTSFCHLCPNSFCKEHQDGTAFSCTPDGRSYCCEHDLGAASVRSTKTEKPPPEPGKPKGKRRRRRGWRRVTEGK
# Beta-galactosidase [16] = target: T6, Beta-galactosidase (Escherichia coli, UniProt Q8VNN2); assay: PubChem AID 485352; type: functional
# T6 sequence (Q8VNN2 whole entry): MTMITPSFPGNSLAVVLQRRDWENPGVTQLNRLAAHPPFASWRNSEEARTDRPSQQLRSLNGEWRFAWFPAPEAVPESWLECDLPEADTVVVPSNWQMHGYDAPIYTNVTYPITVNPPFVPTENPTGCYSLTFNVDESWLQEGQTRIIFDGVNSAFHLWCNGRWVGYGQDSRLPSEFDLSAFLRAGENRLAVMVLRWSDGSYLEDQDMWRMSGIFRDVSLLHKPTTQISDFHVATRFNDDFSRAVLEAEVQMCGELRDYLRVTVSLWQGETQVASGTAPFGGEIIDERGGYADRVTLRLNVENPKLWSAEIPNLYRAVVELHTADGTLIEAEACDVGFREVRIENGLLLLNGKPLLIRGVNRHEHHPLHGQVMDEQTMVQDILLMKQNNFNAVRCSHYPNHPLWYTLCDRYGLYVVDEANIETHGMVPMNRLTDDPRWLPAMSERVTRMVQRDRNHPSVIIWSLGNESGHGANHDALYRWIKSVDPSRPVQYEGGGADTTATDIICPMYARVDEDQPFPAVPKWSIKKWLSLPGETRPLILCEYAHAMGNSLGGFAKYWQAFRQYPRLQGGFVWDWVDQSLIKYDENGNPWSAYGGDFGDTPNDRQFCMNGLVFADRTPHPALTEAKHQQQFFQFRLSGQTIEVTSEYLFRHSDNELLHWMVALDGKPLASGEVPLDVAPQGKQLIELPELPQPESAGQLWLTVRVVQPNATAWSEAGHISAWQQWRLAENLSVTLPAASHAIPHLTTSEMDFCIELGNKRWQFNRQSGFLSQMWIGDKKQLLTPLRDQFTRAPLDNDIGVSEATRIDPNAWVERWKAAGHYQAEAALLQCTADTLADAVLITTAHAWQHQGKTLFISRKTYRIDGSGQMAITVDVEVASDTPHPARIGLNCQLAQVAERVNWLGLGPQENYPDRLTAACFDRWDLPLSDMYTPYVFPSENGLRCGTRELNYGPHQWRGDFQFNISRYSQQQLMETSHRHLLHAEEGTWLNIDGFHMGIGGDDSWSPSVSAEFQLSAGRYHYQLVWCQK
# [17] = target: T7, Type-1 angiotensin II receptor (Homo sapiens, UniProt P30556); assay: AT1 receptor antagonists, dose response, selectivity assay for APJ receptor antagonist project, cell-based, uHTS hits (AID 463214); type: functional;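 note: antagonist potency against angiotensin II stimulated AT1 response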
# T7 sequence (P30556 whole entry): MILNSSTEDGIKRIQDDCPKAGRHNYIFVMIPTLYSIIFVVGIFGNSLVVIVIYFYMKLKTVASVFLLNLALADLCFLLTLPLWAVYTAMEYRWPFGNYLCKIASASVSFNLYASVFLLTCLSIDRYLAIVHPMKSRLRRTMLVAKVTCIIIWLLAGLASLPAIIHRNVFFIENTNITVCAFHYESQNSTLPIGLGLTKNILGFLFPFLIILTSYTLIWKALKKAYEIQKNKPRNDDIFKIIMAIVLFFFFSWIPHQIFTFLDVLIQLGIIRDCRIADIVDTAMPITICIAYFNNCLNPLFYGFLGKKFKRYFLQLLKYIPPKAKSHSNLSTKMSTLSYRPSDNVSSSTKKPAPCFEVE
# Beta-galactosidase [18] = target: T6, Beta-galactosidase; assay: Dose response counterscreen for EBI2 assay utilizing the enzyme, b-galactosidase.; type: functional
# [19] = growth suppression of PTEN-null colon cells, dose response, cell-based, HCT116 PTEN knockout (AID 1047); type: functional;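 note: HCT116 colon tumor cells with PTEN knocked out; cells exposed to compound for 60 hours before readout; potency for loss of cell viability measured by luminescence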
# [20] = growth suppression of beta-catenin-knockout colon cells, dose response, cell-based, HCT116, human colon tumor (AID 1045); type: functional;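 note: HCT116 colon tumor cells with beta catenin knocked out; cells exposed to compound for 60 hours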
# [21] = target: 26S proteasome non-ATPase regulatory subunit 14 (Homo sapiens, UniProt O00487); assay: inhibition of proteasome subunit RPN11 – biochemical, fluorescence polarization, uHTS hits, confirmation (AID 602368); type: functional
# Chain of 26S proteasome non-ATPase regulatory subunit 14 (O00487 whole entry): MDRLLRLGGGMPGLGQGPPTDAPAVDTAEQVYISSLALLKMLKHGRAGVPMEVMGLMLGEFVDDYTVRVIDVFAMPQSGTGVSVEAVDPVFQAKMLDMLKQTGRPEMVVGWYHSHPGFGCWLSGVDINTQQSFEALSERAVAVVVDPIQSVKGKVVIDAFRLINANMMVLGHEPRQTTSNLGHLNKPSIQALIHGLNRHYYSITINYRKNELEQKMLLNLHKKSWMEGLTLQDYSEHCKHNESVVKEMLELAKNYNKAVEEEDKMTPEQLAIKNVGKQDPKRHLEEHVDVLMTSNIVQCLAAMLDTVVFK
# [22] = target: 72 kDa type IV collagenase (Homo sapiens, UniProt P08253); assay: Dose Response validation of uHTS RPN11 inhibitor hits using a MMP-2 Fluorescence assay.; type: functional
# Prothrombin = Prothrombin (Bos taurus, UniProt P00735); assay: thrombin inhibition, dose response, biochemical, fluorescence polarization, uHTS hits (AID 602369); type: functional
# [23] = target: ADP-ribosylation factor GTPase-activating protein 1 (Rattus norvegicus, UniProt Q62848); assay: Fluorescence polarization-based biochemical high throughput dose response screening assay to identify inhibitors of ADP-ribosylation factor GTPase activating protein 1 (ARFGAP1).; type: functional
# [24] = target: Arf-GAP with SH3 domain, ANK repeat and PH domain-containing protein 1 (Homo sapiens, UniProt Q9ULH1); type: functional;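 note: biochemical fluorescence polarization dose–response screen measuring inhibition of ASAP1; ASAP1 GAP domain stimulating GTP hydrolysis by truncated human ARF1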
# Chain of Arf-GAP with SH3 domain, ANK repeat and PH domain-containing protein 1 (Q9ULH1 whole entry, the tested form may be a part): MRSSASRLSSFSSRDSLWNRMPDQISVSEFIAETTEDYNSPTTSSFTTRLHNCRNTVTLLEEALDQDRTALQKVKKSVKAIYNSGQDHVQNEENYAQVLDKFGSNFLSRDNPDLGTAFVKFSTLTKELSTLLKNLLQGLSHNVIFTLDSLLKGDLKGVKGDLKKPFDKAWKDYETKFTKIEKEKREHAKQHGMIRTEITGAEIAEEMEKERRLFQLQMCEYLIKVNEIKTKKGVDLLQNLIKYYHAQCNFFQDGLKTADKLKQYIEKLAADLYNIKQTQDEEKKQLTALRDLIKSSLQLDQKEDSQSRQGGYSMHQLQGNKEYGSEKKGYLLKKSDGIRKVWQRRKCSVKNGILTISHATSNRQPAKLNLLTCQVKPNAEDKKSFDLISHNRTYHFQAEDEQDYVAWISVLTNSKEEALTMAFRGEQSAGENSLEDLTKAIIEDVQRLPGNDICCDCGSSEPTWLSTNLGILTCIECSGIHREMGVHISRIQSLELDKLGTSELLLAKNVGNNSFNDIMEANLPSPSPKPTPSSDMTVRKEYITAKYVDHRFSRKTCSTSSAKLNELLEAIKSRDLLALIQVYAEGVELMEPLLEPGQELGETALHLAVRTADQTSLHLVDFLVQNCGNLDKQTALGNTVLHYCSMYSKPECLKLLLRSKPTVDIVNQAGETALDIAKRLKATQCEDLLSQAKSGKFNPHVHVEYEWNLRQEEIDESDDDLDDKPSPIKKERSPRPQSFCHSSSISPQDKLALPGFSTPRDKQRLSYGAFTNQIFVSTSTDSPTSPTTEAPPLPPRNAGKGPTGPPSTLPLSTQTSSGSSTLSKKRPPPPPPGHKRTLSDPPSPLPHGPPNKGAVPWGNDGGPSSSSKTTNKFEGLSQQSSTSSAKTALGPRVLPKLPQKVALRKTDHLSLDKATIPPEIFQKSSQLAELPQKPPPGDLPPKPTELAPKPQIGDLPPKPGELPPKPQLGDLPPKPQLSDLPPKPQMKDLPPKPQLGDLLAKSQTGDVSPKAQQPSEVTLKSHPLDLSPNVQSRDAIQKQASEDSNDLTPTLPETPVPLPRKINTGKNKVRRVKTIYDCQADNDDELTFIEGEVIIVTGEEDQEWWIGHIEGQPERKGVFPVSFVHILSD
# [25] = target: SWI/SNF-related matrix-associated actin-dependent regulator of chromatin subfamily A member 2 (Homo sapiens, UniProt P51531); assay: Luminescence-based cell-based high throughput dose response assay to identify activators of the function of SWI/SNF related, matrix associated, actin dependent regulator of chromatin, subfamily a, member 2 (SMARCA2, BRM).; type: functional
# [26] = Counterscreen for activators of the function of SWI/SNF related, matrix associated, actin dependent regulator of chromatin, subfamily a, member 2 (SMARCA2, BRM): Luminescence-based cell-based high throughput dose response assay to identify non-selective compounds using the VP16 reporter assay.; type: functional
structure (smiles),measurement,setting,value
COc1ccccc1NS(=O)(=O)c1cccc(NC(=O)Nc2ccc(Cl)cc2)c1,EC50,HEK293 [1],> 20 µM (inactive)
same,IC50,HEK293 [2],6.59 µM (active)
same,IC50,HEK293 [3],7.01 µM (active)
same,IC50,HEK293 [4],5.81 µM (inactive)
same,EC50,[5],1.8 µM (active)
same,EC50,[6],> 60 µM (not active)
same,IC50,[7],39.5 µM (inactive)
same,IC50,[8],65.3 µM (inactive)
same,IC50,[9],5.53 µM (active)
N#Cc1cc2ccc(N3CCOCC3)cc2cc1C#N,IC50,[10],> 66.6 µM (inactive)
same,IC50,Fatty acid synthase [11],5.9 µM (active)
same,IC50,[12],100 µM (inactive)
same,AC50,[13],116 µM (active)
same,IC50,Fatty acid synthase [14],4.31 µM (active)
same,AC50,Caspase-6,29.9 µM (active)
same,AC50,[15],3.05 µM (active)
Cc1ccc(C(=O)CNc2ccc(Br)cc2)cc1,EC50,Beta-galactosidase [16],> 40 µM (inactive)
same,IC50,[17],7.47 µM (active)
same,IC50,Beta-galactosidase [18],> 80 µM (inactive)
Nc1nc(SCc2ccc(Cl)cc2Cl)nc2nc3c(cc12)CCCC3,EC50,[19],14.4 µM (active)
same,EC50,[20],13.3 µM (active)
same,IC50,[21],41.4 µM (active)
same,IC50,[22],> 100 µM (inactive)
same,IC50,Prothrombin,39.2 µM (active)
same,IC50,[23],23.8 µM (inactive)
same,IC50,[24],17.7 µM (inactive)
N#C/C(=N/Nc1ccccc1F)C(=N)N1CCOCC1,EC50,[25],> 91.2 µM (inactive)
same,EC50,[26],> 91.2 µM (inactive)
